Data published in patent publication US9295627B2 (priority 2011, dated 2016).
Like-named read-outs stand apart in the source and are kept apart here.

Legend:
[1] = Solubility in solvents such as water; type: physicochemical
Acute toxicity test = conditions: female, BALB/c, mouse, in vivo, ip
Description: Two grams of any one of the adenosine N1-oxide obtained in Experiment 1, the 3′-glucosyladesonine N1-oxide and 5′-glucosyladenosine N1-oxide obtained in Experiment 2, and the 5′-adenosine diphosphate N1-oxide and 5′-adenosine triphosphate N1-oxide obtained in Experiment 3 was dissolved in 100 mL of D-PBS (Dulbecco's Phosphate-Buffered Salines). The resulting solution was intraperitoneally administered to 10 BALB/c female mice, six-week-old, with an average body mass of 20 g each, commercialized by Charles River Laboratories Japan, Inc., Kanagawa, Japan, at a dose of one milliliter/head, followed by observation for 24 hours. As a control, only D-PBS was intraperitoneally administered to 10 BALB/c female mice, six-week-old, with an average body mass of 20 g each, commercialized by Charles River Laboratories Japan, Inc., Kanagawa, Japan, at a dose of one milliliter/head, followed by observation for 24 hours. Thereafter, each mouse was collected her blood and urine for measuring clinical test items as indexes for renal and liver functions. […] As a result, adenosine N1-oxide, 3′-glucosyladenosine N1-oxide, 5‘-glucosyladenosine N1-oxide, 5’-adenosinme diphosphate N1-oxide, and 5′-adenosine triphosphate N1-oxide have an LD50 of at least 1,000 mg/kg, respectively. Thus, these compounds are judged as substances safely administrable to humans.

[2] = system: medium periodontal diseases; test: Volunteer test 2: tooth mobility after mouthwash use, concentration series; type: in vivo, human; conditions: aqueous mouthwash, % by mass, Experiment 6
Source text: • A: A distinct improvement in tooth mobility is observed on a tooth mobility test (or periodontometry) with a pincette compared with that before initiating the test; • B: Somewhat improvement in tooth mobility is observed on a tooth mobility test with a pincette compared with that before initiating the test; and • C: No improvement or rather aggravation is observed on a tooth mobility test with a pincette compared with that before initiating the test.
For adenosine N1-oxide, which had marked the highest improvement effect on periodontal diseases in Experiment 5, it was examined in more detail for its improvement action on periodontal diseases: Eight females, 20- to 30-year-old, as subjects, who were healthy except for suffering from medium periodontal diseases (with a periodontal pocket depth of 3 mm or deeper but less than 6 mm), were subjected to a volunteer test similarly as in Experiment 5 except for using six types of aqueous solutions containing 0.001 to 7.5% adenosine N1-oxide and setting a test period of seven months. […]
The subjects were allowed to brush their teeth with the same toothpaste as used in Experiment 5. […] Before initiating the test, a dental hygienist under a doctor's guidance evaluated the conditions of gingivitis for each subject […] based on the same criteria as shown in Experiment 5.

[3] = 1000 mg/kg, intraperitoneal, 2 g in 100 mL D-PBS, one milliliter/head, mice of 20 g, observation for 24 hours, read-out: LD50

Compound	solubility in solvents such as water compared to adenosine N1-oxide [1]	LD50 at 24 h (Acute toxicity test; [3]) [mg/kg]	LD50 at 24 h (Acute toxicity test) [mg/kg]	concentrations at which periodontal diseases are distinctly, effectively prevented and/or treated [2] [%]
Nc1c2ncn(C3OC(COP(=O)(O)OP(=O)(O)O)C(O)C3O)c2nc[n+]1[O-] (centres unmarked) [5′-adenosine diphosphate N1-oxide]	higher solubility			
Nc1c2ncn([C@@H]3O[C@H](CO[C@H]4O[C@H](CO)[C@@H](O)[C@H](O)[C@H]4O)[C@@H](O)[C@H]3O)c2nc[n+]1[O-]	higher solubility	≥ 1000		
Nc1c2ncn([C@@H]3O[C@H](COP(=O)(O)OP(=O)(O)OP(=O)(O)O)[C@@H](O)[C@H]3O)c2nc[n+]1[O-] [5′-adenosine triphosphate N1-oxide]	higher solubility			
Nc1c2ncn([C@@H]3O[C@H](CO)[C@@H](O)[C@H]3O)c2nc[n+]1[O-] [adenosine N1-oxide]			≥ 1000	≥ 0.5
Nc1c2ncn([C@@H]3O[C@H](CO)[C@@H](O[C@H]4O[C@H](CO)[C@@H](O)[C@H](O)[C@H]4O)[C@H]3O)c2nc[n+]1[O-]	higher solubility	≥ 1000		
